Source: patent US7241789B2, “Substituted indoles and their use as integrin antagonists” (3-Dimensional Pharmaceutical, Inc., priority 2001, dated 2007)

These compounds were tested against T1, human αvβ3 (Homo sapiens, UniProt P05106+P06756) (assay: αvβ3-vitronectin Assay). Conditions: inhibition of binding of biotinylated human vitronectin to plate-coated human αvβ3, ELISA, room temperature.
T1 construct: purchased Chemicon CC1019
Description: The assay is based on the method of Dennis (Dennis, M. S., et al., Proteins 15: […] (1993)). Costar 9018 flat-bottom 96-well ELISA plates were coated overnight at […] with 100 μL/well of 10 μg/mL human fibrinogen (Calbiochem 341578) in 20 mM Tris-HCl pH 7.5, 150 mM NaCl, 2 mM CaCl2, 0.02% NaN3 (TAC buffer), and blocked for 1 hr at 37° C. with 150 μL/well of TAC buffer containing 0.05% Tween 20 and 1% bovine serum albumin (TACTB buffer). After washing 3 times with 200 μL/well of 10 mM Na2 HPO4 pH 7.5, 150 mM NaCl, 0.01% Tween 20 (PBST buffer), controls or test compound (0.027–20.0 μM) were mixed with 40 μg/mL human GPIIbIIIa (Enzyme Research Laboratories) in TACTB buffer, and 100 μL/well of these solutions were incubated for 1 hr at 37° C. The plate was then washed 5 times with PBST buffer, and 100 μL/well of a monoclonal anti-GPIIbIIIa antibody in TACTB buffer (1 μg/mL, Enzyme Research Laboratories MabGP2b3a) was incubated at 37° C. for 1 hr. After washing (5 times with PBST buffer), 100 μL/well of goat anti-mouse IgG conjugated to horseradish peroxidase (Kirkegaard & Perry 14–23–06) was incubated at 37° C. for 1 hr (25 ng/mL in PBST buffer), followed by a 6-fold PBST buffer wash. The plate was developed by adding 100 μL/well of 0.67 mg o-phenylenediamine dihydrochloride per mL of 0.012% H2O2, 22 mM sodium citrate, 50 mM sodium phosphate, pH 5.0 at room temperature. The reaction was stopped with 50 μL/well of 2M H2SO4, and the absorbence at 492 nm was recorded. Percent (%) inhibition was calculated from the average of three separate determinations relative to buffer controls (no test compound added), and a four parameter fit (Marquardt, D. W., J. Soc. Indust. Appl. Math. 11:431–441 (1963)) was used to estimate the half maximal inhibition concentration (IC50).
The assay was based on the method of Niiya (Niiya, K., et al., Blood 70:475–483 (1987)). Costar 9018 flat-bottom 96-well ELISA plates were coated overnight at room temperature with 100 μL/well of 0.4 μg/mL human αvβ3 (Chemicon CC1019) in TS buffer (20 mM Tris-HCl pH 7.5, 150 mM NaCl, 1 mM CaCl2, 1 mM MgCl2, 1 mM MnCl2). All subsequent steps were performed at room temperature. Plates were blocked for 2 hr with 150 μL/well of TS buffer containing 1% BSA (TSB buffer), and washed 3 times with 200 μL/well of PBST buffer. Controls or test compound (0.0001–20.0 μM) were mixed with 1 μg/mL of human vitronectin (Chemicon CCO80) that had been biotinylated in-house with sulfo-NHS-LC-LC-biotin (Pierce 21338, 20:1 molar ratio), and 100 μL/well of these solutions (in TSB buffer) were incubated for 2 hr. The plate was then washed 5 times with PBST buffer, and 100 μL/well of 0.25 μg/mL NeutrAvidin-horseradish peroxidase conjugate (Pierce 31001) in TSB buffer was incubated for 1 hr. Following a 5-fold PBST buffer wash, the plate was developed and results were calculated as described for the fibrinogen-IIbIIIa assay.

T1 sequence (P06756 31-889 limits assumed): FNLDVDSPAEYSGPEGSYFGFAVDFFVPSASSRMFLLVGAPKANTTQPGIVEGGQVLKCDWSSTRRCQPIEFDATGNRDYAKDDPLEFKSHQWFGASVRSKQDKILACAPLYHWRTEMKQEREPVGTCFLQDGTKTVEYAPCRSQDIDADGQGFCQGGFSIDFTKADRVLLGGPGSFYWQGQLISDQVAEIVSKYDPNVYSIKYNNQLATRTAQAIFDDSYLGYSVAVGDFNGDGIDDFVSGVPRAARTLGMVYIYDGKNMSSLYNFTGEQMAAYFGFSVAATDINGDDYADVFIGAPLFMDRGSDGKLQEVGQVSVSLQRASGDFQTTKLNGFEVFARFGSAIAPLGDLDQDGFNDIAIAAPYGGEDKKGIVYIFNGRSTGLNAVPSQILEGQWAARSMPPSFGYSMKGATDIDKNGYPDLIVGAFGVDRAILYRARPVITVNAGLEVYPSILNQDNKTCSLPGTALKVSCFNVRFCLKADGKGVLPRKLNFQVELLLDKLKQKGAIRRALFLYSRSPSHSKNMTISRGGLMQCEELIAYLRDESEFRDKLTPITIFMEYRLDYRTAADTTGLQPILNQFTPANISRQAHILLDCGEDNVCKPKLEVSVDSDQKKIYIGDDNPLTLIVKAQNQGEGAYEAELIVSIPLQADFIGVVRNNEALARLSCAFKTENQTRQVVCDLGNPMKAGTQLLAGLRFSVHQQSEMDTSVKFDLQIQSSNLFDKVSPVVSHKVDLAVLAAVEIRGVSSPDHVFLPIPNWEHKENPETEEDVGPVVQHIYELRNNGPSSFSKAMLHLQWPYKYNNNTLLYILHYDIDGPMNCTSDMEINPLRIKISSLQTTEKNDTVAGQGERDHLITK
T1 sequence (P06756 891-1048 limits assumed): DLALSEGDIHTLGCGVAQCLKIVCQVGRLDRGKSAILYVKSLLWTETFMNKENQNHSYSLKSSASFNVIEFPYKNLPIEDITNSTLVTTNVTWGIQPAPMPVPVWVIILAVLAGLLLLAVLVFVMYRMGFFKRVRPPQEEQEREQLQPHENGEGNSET
T1 sequence (P05106 27-788): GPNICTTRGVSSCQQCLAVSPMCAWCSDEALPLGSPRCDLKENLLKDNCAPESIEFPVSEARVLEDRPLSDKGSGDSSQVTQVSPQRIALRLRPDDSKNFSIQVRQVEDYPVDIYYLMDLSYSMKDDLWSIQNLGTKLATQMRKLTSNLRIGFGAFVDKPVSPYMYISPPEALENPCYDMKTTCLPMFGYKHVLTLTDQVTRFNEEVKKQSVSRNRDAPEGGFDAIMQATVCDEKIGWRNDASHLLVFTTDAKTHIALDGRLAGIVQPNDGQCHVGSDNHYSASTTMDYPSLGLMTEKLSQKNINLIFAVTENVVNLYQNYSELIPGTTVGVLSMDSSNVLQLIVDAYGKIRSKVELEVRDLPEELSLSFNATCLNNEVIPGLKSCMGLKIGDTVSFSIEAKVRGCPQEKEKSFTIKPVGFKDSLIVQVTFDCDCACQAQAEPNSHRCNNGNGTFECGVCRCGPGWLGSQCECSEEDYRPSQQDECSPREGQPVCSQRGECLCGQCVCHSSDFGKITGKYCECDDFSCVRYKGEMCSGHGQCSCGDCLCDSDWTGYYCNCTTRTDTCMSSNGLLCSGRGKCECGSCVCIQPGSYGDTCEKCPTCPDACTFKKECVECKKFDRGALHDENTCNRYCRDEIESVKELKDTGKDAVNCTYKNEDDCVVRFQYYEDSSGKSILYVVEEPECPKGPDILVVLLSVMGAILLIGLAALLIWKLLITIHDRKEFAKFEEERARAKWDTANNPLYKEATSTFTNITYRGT

Compound | IC50
3-{5-[3-(2-Pyridylamino)propoxy]indolyl}propanoic acid ammonium salt [Example 1] | 500 nM
CC(Cn1ccc2cc(OCCCNc3ccccn3)ccc21)C(=O)O (stereo not shown) [Example 7, 2-Methyl-3-{5-[3-(2-pyridylamino)propoxy]indolyl}propanoic acid] | 500 nM
O=C(O)CC(c1cccnc1)n1ccc2cc(OCCc3ccc4c(n3)NCCC4)ccc21 (stereo not shown) [Example 38, 3-Pyridin-3-yl-3-{5-[2-(5,6,7,8-tetrahydro-[1,8]naphthyridin-2-yl)-ethoxy]-indol-1-yl}-propionic acid] | 0.24 nM
CNc1cccc(CCOc2ccc3c(ccn3CCC(=O)O)c2)n1 [Example 5, 3-(5-{2-[6-(Methylamino)-2-pyridyl]ethoxy}indolyl)propanoic acid] | 50 nM

Second part, the compound after the results:

IC50 | Compound
4 nM | CCCC(CC(=O)O)n1ccc2cc(OCCc3ccc4c(n3)NCCC4)ccc21 (stereo not shown) [Example 14, 3-{5-[2-(5,6,7,8-Tetrahydro-[1,8]naphthyridin-2-yl)-ethoxy]-indol-1-yl}-hexanoic acid]
670 nM | O=C(O)[C@@H]1C[C@H]1n1ccc2cc(OCCCNc3ccccn3)ccc21 (relative stereo) [Example 4]
6 nM | O=C(O)CCn1ccc2cc(OCCc3ccc4c(n3)NCCC4)ccc21 [Example 15, 3-{5-[2-(5,6,7,8-Tetrahydro-[1,8]naphthyridin-2-yl)-ethoxy]-indol-1-yl}-propionic acid]
